Experimental data from PMC11755562, “Peptide Inhibitor Assay for Allocating Functionally Important Accessible Sites Throughout a Protein Chain: Restriction Endonuclease EcoRI as a Model Protein System” (BioTech, 2024).
“Also recorded” adds a separate entry of the source.

Key:
[1] = target: T1, EcoRI (Escherichia coli, UniProt P00642); assay: Peptide inhibitor assay (PIA): EcoRI digestion of pCRII-TOPO-OR23 plasmid, fluorescence intensity of the excised OR23 band on agarose gel; assay type: biochemical; conditions: for level of inhibitory effect on EcoRI (in words) / relative fluorescence intensity of excised OR23 fragment / significance of inhibition of EcoRI activity versus no peptide / inhibitory effect compared with the original peptide (in words): 3 h; for level of inhibitory effect on EcoRI (in words): EcoRI:peptide 1:500, relative fluorescence intensity; for relative fluorescence intensity of excised OR23 fragment: relative to no peptide, EcoRI:peptide 1:500 molar ratio, 37 °C, 0.015 mM Mg2+, mean of n = 3; for significance of inhibition of EcoRI activity versus no peptide: EcoRI:peptide 1:500, Dunnett's test versus no peptide; for inhibitory effect compared with the original peptide (in words): EcoRI:peptide 1:500, randomized peptides by Student's t-test versus each endogenous BP
T1 construct: The first M is removed after translation in this protein; purchased New England Biolabs
T1 sequence (P00642 2-277): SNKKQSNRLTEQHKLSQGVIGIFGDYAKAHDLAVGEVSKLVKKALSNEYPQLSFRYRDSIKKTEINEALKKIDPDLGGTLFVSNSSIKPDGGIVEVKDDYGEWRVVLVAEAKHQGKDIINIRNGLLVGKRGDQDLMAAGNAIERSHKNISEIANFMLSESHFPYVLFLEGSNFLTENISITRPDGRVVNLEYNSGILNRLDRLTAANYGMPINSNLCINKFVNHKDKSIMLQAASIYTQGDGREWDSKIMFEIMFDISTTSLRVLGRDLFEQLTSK
Method: Peptide synthesis was performed by GenScript Japan (Tokyo, Japan). All peptides were confirmed to be more than 75% pure via high-performance liquid chromatography (HPLC) and to have theoretical molecular weights via mass spectrometry (MS). The peptides were dissolved in DMSO (dimethyl sulfoxide) and were prepared at 5.59 × 10^−9 mol/μL (5.59 mM). When 1.0 μL of this peptide mixture was mixed in a tube for the inhibition of EcoRI catalytic activity, the molar ratio of EcoRI to peptide was 1:500. This concentration in molar equivalence was used throughout this study unless otherwise noted.
Purified and concentrated EcoRI (20,000 U/mL, approximately 338 μg/mL, 1.12 × 10^−[…]) was obtained from New England Biolabs (Ipswich, MA, USA). To quantify and visualize the inhibitory effects of the peptides, the enzymatic reaction conditions were set so that at least three hours of incubation were required to completely digest the substrate plasmid DNA with EcoRI. To do so, we used a low Mg^2+ concentration (0.015 mM) in the reaction mixture in contrast to the optimum concentration of Mg^2+ for EcoRI (10 mM).
(§1) All master solutions and samples were prepared on ice. A single reaction tube contained the following common ingredients: autoclaved DNase-free RNase-free deionized H2O (12.5 μL) (Nippon Gene), 10× NE Buffer Mg^2+-free (2.0 μL), pCRII-TOPO-OR23 plasmid DNA (2.0 μL of 40 ng/μL solution), MgCl2 (1.5 μL of 0.20 mM solution), and EcoRI (1.0 μL). A master solution containing these ingredients without DMSO or a peptide was first prepared for the number of sample tubes. The master solution was aliquoted into 1.5 mL spin tubes (19.0 μL per tube). Then, 1.0 μL of DMSO or a peptide sample was added, and the mixture was incubated at 37 °C. A negative control with DMSO but without a peptide (“no peptide” control) was run in every assay. When the digestion efficiency was compared, another negative control with autoclaved DNase-free RNase-free H2O without EcoRI was prepared. After the reaction, the samples were quickly cooled on ice for ten minutes and then stored at −80 °C until agarose gel electrophoresis. The above protocol was conducted for all peptides (including BP19.5, BP19.5N, and BP19.5C) used in the present study unless otherwise noted.
To quantify EcoRI activity after incubation of a reaction mixture, digested pCRII-TOPO-OR23 plasmid DNA was examined via agarose gel electrophoresis. We first prepared a 25 mL solution of 1.0% agarose (Nippon Gene) in TAE (Tris-acetate-EDTA) buffer (Promega, Madison, WI, USA) to produce an agarose gel. An ethidium bromide solution (0.5 μL of 10 mg/mL) (Promega) was added before gelation. After incubation with EcoRI, the fluorescence intensity of the band of the excised OR23 fragment was measured via an ImageQuant LAS4000 (GE Healthcare Japan, Tokyo, Japan) with the following conditions: “Exposure Type”: Precision; “Exposure Time”: Manual 1/8 sec; “Sensitivity/Resolution”: Standard; and “Fluorescent Method”: Epi illumination; EtBr; UV (Trans UV) light; 6-5DF50 Filter; and F2.8 Iris.
For statistical analyses, Student’s t-test (unpaired and bi-sided), Dunnett’s test, and Pearson correlation analysis were performed via Microsoft Excel (Office 365) and JSTAT (Yokohama, Japan). The Dunnett’s test was performed for each experimental group that was examined simultaneously in the laboratory, in comparison to the “no peptide” control group that was examined simultaneously. The repeated measure mode of the Dunnett’s test was used on the assumption that there was no interaction between samples.

[2] = target: T1, EcoRI; assay: Nonspecific nuclease activity of EcoRI reaction mixture with peptide (plasmid DNA degradation); assay type: biochemical; conditions: EcoRI plus peptide 1:500, 3 h, n = 3
Method: A recombinant plasmid, pCRII-TOPO (Invitrogen, Waltham, MA, USA), containing a PCR fragment of the full-length cDNA (978 bp) of the mouse odorant receptor OR23 [82, 83, 84, 85, 86] at the EcoRI cloning site (GAATTC) was used as a DNA substrate for EcoRI. […] This pCRII-TOPO-OR23 plasmid was prepared from TOP10F’ Escherichia coli (Invitrogen) using ATP Plasmid Mini Kit (ATP Biotech, Taipei, ROC). The plasmid solution was prepared at 40 ng/μL by adding autoclaved DNase-free RNase-free deionized H2O (Nippon Gene, Tokyo, Japan). The DNA concentrations were measured with a Qubit fluorometer (Invitrogen).
as §1
This reaction mixture containing EcoRI and BP19.5 appeared to degrade the plasmid DNA entirely. […] The DNA concentration at 3 h was 3.297 ± 0.006 ng/μL without any peptide in the reaction mixture and 0.332 ± 0.003 ng/μL with BP19.5, indicating a statistically significant difference (n = 3; unpaired bi-sided Student’s t-test; p = 1.6 × 10^−11). […] Therefore, BP19.5 and its derivatives are likely to cause EcoRI to become a nonspecific nuclease. In other words, BP19.5 was likely a specificity/activity modifier of EcoRI instead of an inhibitor.

## LGRDLFEQLTSK [BP25]
[1]; n = 3
  level of inhibitory effect on EcoRI (in words): especially notable; also recorded: most inhibitory; also recorded: most effective
[1]
  relative fluorescence intensity of excised OR23 fragment: less than 0.3

## LSQGVIGIFGDY [BP2.5]
[1]; n = 3
  level of inhibitory effect on EcoRI (in words): notable
[1]
  relative fluorescence intensity of excised OR23 fragment: less than 0.3

## NAIERSHKNIS [BP13.5]
[1]; n = 3
  level of inhibitory effect on EcoRI (in words): not very inhibitory

## NEYPQLAFRYRDS [BP5]
[1]; n = 3
  significance of inhibition of EcoRI activity versus no peptide: significantly inhibitory
  level of inhibitory effect on EcoRI (in words): highly inhibitory; also recorded: most effective
[1]
  relative fluorescence intensity of excised OR23 fragment: less than 0.3

## NGLLVG [BP12N]
[1]; n = 3
  inhibitory effect compared with the original peptide (in words): more inhibitory than the original

## NISEIA [BP14M]
[1]; n = 3
  level of inhibitory effect on EcoRI (in words): noninhibitory

## NLCINK [BP19.5C, deletion peptide from BP19.5]
[2]
  plasmid DNA degradation / nonspecific nuclease induction (agarose gel electrophoresis, in words): no DNA was detected; also recorded: induced such nuclease activity

## NSGILNRLDRLTA [BP18]
[1]; n = 3
  level of inhibitory effect on EcoRI (in words): especially notable; also recorded: most effective
[1]
  relative fluorescence intensity of excised OR23 fragment: less than 0.3

## PINSNL [BP19.5N, deletion peptide from BP19.5]
[2]
  plasmid DNA degradation / nonspecific nuclease induction (agarose gel electrophoresis, in words): no DNA was detected; also recorded: induced such nuclease activity

## PINSNLCINK [BP19.5]
[2]
  plasmid DNA degradation / nonspecific nuclease induction (agarose gel electrophoresis, in words): no DNA fragment or plasmid DNA was detected
[2]; no peptide 3.297 ± 0.006
  DNA concentration at 3 h in the reaction mixture: 0.332 ± 0.003 ng/µL

## RNGLLVGKRGDQD [BP12]
[1]; n = 3
  significance of inhibition of EcoRI activity versus no peptide: significantly inhibited EcoRI activity

## SHKNIS [BP14N]
[1]; n = 3
  level of inhibitory effect on EcoRI (in words): noninhibitory

## SHKNISEIANFM [BP14]
[1]; n = 3
  significance of inhibition of EcoRI activity versus no peptide: significantly inhibited EcoRI activity
  level of inhibitory effect on EcoRI (in words): especially notable; also recorded: moderate inhibitory effect
[1]; time course until 5 h, EcoRI:peptide 1:500, compared with no peptide, n = 3
  inhibitory effect, fluorescence intensity versus incubation time (in words): relatively high inhibitory effects
[1]; ×5 to ×500 molar equivalence to EcoRI, fixed time point 3 h, n = 3
  concentration dependence of the inhibitory effect: concentration dependent

## SNKKQSNRLTEQHK [BP1]
[1]; n = 3
  significance of inhibition of EcoRI activity versus no peptide: significantly inhibitory
  level of inhibitory effect on EcoRI (in words): reasonably inhibitory

## SSIKPDGGIVE [BP8.5]
[1]; n = 3
  level of inhibitory effect on EcoRI (in words): not very inhibitory

## STTSLRVLGRDLFE [BP24]
[1]; n = 3
  level of inhibitory effect on EcoRI (in words): did not work well

## TRPDGRVVNLEY [BP17]
[1]; n = 3
  level of inhibitory effect on EcoRI (in words): not very inhibitory

## VEGQELAVKAHRWV [BP10R1]
[1]; n = 3
  inhibitory effect compared with the original peptide (in words): significantly more inhibitory

## VGLILSTGDFDP [BP7R1]
[1]; n = 3
  inhibitory effect compared with the original peptide (in words): as inhibitory as the original peptides

## VIGIFGDYAKAHDL [BP3]
[1]; n = 3
  significance of inhibition of EcoRI activity versus no peptide: significantly inhibitory
  level of inhibitory effect on EcoRI (in words): highly inhibitory; also recorded: most effective
[1]
  relative fluorescence intensity of excised OR23 fragment: less than 0.3

## VKDDYG [BP9C]
[1]; n = 3
  level of inhibitory effect on EcoRI (in words): noninhibitory

## VNHKDKSIMLQA [BP20.5]
[1]; n = 3
  level of inhibitory effect on EcoRI (in words): did not show high inhibition

## VVNLEYNSGILN [BP17.5]
[1]; n = 3
  level of inhibitory effect on EcoRI (in words): not very inhibitory

## YVLFLE [BP15C]
[1]; n = 3
  level of inhibitory effect on EcoRI (in words): most effective
  inhibitory effect compared with the original peptide (in words): more inhibitory than the original BP15
[1]
  relative fluorescence intensity of excised OR23 fragment: less than 0.3
